Paper PMC9030254, “Target Hopping from Protein Kinases to PXR: Identification of Small-Molecule Protein Kinase Inhibitors as Selective Modulators of Pregnane X Receptor from TüKIC Library” (Cells, 2022)

Assays:
Assay in all cases: Kinase profiling
Assay type in all cases: biochemical
RPS6KA6 = biological target: T1, RPS6KA6 (Homo sapiens, UniProt Q9UK32)
T1 construct: purchased ProQinase (Freiburg, Germany)
Description: (§1) The analysis was performed by ProQinase (Freiburg, Germany).

SIK1 = biological target: T2, SIK1 (Homo sapiens, UniProt P57059)
T2 construct: purchased ProQinase (Freiburg, Germany)
T2 sequence (P57059 whole entry): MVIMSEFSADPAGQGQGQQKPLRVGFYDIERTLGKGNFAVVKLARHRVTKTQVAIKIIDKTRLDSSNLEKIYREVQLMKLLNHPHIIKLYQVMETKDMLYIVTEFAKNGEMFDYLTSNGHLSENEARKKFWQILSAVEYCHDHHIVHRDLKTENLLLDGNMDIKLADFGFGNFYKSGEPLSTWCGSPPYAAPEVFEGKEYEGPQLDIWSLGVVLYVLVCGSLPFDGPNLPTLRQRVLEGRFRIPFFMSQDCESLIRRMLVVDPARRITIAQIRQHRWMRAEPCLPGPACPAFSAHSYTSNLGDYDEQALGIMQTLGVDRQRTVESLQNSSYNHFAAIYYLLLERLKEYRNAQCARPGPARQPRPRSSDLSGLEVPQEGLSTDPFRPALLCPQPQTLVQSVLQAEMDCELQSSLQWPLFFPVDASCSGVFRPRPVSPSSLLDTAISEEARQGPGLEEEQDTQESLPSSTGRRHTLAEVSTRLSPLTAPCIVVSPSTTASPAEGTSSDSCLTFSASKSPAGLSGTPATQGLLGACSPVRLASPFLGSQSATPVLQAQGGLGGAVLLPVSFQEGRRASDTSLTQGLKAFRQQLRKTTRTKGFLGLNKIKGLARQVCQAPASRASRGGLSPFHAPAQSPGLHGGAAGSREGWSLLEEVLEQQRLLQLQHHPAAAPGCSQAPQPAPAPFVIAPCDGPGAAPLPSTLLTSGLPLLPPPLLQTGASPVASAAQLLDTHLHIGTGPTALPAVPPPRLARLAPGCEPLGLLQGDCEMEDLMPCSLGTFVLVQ
Description: as §1

STK33 = biological target: T3, STK33 (Homo sapiens, UniProt Q9BYT3)
T3 construct: purchased ProQinase (Freiburg, Germany)
T3 sequence (Q9BYT3 whole entry): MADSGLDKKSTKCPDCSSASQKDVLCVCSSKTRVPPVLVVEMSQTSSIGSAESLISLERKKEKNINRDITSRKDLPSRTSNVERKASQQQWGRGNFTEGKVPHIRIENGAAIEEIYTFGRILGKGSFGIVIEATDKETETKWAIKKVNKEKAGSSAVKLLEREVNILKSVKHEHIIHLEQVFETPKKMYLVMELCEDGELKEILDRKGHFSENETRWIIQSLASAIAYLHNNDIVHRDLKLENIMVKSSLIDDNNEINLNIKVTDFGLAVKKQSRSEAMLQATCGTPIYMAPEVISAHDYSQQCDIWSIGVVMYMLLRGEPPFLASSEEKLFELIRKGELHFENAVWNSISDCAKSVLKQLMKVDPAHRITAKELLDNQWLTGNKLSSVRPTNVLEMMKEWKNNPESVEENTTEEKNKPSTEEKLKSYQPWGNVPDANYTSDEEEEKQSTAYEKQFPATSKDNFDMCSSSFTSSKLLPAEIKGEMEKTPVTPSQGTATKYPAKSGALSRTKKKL
Description: as §1

CAMK1D = biological target: T4, CAMK1D (Homo sapiens, UniProt Q8IU85)
T4 construct: purchased ProQinase (Freiburg, Germany)
T4 sequence (Q8IU85 whole entry): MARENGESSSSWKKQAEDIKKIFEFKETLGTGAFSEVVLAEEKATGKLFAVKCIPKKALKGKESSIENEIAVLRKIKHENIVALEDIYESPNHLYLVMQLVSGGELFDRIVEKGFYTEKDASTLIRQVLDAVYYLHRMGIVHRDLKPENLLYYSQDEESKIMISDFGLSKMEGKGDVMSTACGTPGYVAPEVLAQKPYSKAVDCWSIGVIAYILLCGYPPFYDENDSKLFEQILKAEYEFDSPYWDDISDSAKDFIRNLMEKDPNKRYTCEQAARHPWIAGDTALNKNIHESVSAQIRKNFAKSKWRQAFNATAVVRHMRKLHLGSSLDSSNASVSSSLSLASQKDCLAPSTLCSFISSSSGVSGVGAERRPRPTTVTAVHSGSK
Description: as §1

p38delta = biological target: T5, p38delta (Homo sapiens, UniProt O15264)
T5 construct: purchased ProQinase (Freiburg, Germany)
T5 sequence (O15264 1-365): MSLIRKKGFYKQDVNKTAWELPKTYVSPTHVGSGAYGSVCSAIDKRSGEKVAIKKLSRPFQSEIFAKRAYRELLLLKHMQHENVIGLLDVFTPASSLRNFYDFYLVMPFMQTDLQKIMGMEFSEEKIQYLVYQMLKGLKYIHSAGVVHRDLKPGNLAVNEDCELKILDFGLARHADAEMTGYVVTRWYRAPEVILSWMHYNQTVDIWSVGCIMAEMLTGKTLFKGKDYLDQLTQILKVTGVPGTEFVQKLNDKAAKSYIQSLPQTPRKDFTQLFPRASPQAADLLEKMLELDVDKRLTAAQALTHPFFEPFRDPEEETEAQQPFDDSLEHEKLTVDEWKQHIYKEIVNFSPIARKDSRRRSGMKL
Description: as §1

PKCeta = biological target: T6, PKCeta (Homo sapiens, UniProt P24723)
T6 construct: purchased ProQinase (Freiburg, Germany)
T6 sequence (P24723 whole entry): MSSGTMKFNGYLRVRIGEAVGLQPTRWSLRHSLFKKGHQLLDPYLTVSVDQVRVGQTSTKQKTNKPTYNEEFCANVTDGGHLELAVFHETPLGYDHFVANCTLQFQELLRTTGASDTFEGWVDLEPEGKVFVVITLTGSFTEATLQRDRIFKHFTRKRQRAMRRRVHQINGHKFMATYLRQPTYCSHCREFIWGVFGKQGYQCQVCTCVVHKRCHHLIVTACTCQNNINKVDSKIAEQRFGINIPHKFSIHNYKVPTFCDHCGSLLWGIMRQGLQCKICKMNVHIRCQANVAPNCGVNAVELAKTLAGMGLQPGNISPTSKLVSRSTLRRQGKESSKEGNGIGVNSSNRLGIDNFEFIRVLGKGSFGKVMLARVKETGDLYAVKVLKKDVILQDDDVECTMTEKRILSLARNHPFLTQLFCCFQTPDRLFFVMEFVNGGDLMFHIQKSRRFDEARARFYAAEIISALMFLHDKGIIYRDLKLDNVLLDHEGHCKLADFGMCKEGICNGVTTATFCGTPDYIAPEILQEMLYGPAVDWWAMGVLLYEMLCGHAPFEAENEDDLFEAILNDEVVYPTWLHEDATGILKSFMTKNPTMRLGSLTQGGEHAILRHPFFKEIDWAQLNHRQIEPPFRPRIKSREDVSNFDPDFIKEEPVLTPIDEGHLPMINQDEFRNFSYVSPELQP
Description: as §1

MAP3K7/MAP3K7IP1 = biological target: T7, MAP3K7/MAP3K7IP1 (Homo sapiens, UniProt O43318)
T7 construct: purchased ProQinase (Freiburg, Germany)
T7 sequence (O43318 1-303 limits assumed): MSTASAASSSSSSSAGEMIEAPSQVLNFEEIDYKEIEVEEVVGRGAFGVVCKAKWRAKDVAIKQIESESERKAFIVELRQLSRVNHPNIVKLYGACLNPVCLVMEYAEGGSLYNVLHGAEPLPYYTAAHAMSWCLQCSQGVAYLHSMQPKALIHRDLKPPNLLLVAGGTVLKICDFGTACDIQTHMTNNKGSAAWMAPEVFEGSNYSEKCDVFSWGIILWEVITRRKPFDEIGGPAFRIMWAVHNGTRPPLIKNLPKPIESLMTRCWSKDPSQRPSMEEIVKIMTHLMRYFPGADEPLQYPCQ
Description: as §1

BUB1B = biological target: T8, BUB1B (Homo sapiens, UniProt O60566)
T8 construct: purchased ProQinase (Freiburg, Germany)
T8 sequence (O60566 whole entry): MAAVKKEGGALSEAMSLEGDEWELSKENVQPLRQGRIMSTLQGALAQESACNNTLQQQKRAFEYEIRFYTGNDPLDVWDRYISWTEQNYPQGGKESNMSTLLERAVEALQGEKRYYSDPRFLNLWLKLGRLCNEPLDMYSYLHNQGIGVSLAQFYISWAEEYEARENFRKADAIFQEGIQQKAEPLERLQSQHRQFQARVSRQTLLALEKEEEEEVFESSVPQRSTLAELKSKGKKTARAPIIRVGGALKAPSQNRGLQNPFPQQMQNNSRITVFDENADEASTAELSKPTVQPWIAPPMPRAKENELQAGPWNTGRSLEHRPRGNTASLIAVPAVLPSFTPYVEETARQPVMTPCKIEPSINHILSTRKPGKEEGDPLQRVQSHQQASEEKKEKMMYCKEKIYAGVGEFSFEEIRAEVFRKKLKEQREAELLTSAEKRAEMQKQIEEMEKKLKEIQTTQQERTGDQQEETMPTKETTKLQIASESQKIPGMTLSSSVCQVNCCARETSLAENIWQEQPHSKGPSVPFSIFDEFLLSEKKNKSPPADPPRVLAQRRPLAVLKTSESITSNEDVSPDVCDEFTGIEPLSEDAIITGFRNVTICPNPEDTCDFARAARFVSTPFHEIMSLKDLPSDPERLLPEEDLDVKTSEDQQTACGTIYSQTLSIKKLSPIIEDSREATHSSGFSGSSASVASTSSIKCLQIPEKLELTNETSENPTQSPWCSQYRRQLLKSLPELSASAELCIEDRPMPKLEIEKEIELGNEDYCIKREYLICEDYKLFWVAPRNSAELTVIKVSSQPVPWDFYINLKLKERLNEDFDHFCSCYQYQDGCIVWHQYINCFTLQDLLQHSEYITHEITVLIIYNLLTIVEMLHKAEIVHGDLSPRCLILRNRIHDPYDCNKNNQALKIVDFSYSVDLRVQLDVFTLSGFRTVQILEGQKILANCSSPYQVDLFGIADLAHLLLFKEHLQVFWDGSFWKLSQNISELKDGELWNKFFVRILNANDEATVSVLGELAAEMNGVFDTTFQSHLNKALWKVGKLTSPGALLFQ
Description: as §1

STK39 = biological target: T9, STK39 (Homo sapiens, UniProt Q9UEW8)
T9 construct: purchased ProQinase (Freiburg, Germany)
Description: as §1

FGR = biological target: T10, FGR (Homo sapiens, UniProt P09769)
T10 construct: purchased ProQinase (Freiburg, Germany)
T10 sequence (P09769 whole entry): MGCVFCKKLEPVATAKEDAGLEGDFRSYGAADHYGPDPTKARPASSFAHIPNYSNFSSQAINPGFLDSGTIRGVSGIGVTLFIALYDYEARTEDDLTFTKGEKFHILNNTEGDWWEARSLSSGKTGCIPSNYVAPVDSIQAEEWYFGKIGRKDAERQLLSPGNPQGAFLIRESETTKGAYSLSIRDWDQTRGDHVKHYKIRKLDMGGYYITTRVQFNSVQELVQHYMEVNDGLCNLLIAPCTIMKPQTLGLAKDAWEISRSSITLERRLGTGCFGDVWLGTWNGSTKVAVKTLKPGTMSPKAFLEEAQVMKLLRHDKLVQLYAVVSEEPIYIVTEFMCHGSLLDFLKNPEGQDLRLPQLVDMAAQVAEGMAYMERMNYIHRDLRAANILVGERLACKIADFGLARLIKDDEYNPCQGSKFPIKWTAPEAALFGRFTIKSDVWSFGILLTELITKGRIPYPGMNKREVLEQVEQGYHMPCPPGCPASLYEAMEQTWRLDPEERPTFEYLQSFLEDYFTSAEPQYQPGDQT
Description: as §1

ERK5 = biological target: T11, ERK5 (Homo sapiens, UniProt Q13164)
T11 construct: purchased ProQinase (Freiburg, Germany)
Description: as §1

MEKK2 = biological target: T12, MEKK2 (Homo sapiens, UniProt Q9Y2U5)
T12 construct: purchased ProQinase (Freiburg, Germany)
T12 sequence (Q9Y2U5 1-619): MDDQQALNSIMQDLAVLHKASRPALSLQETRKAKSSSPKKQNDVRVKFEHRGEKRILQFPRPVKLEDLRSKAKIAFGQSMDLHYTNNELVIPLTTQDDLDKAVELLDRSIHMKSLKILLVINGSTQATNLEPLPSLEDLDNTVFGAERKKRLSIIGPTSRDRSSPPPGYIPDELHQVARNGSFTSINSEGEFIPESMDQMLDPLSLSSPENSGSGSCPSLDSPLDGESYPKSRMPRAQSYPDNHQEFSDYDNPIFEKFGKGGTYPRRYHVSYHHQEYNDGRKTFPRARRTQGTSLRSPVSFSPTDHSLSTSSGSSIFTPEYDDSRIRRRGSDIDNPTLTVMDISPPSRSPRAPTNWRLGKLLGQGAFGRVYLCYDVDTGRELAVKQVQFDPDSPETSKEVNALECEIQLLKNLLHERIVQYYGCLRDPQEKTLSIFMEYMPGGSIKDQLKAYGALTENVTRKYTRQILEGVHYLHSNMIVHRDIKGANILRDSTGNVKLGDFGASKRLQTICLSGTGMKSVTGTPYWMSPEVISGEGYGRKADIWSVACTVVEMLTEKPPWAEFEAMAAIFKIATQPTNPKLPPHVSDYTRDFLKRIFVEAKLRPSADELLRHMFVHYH
Description: as §1

T1 sequence (Q9UK32 whole entry): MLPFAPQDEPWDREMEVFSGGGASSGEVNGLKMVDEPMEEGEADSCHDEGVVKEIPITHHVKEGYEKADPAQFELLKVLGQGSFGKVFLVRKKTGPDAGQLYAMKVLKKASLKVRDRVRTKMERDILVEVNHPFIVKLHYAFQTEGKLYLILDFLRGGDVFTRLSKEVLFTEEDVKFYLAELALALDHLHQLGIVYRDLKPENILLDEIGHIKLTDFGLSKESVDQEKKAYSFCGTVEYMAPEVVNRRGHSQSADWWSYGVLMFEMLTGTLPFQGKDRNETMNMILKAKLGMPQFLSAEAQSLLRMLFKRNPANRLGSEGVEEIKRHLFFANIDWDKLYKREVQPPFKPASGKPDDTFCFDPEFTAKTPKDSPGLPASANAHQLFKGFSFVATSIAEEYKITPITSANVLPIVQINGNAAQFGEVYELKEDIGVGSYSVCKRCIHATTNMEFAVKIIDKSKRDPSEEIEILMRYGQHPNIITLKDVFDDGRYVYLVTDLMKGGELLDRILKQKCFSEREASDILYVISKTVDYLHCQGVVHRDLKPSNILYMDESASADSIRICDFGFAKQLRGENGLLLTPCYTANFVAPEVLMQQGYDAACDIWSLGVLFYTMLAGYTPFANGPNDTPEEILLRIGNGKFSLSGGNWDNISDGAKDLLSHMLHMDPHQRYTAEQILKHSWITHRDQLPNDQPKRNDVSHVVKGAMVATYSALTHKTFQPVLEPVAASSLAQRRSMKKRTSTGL

Row | SMILES | Residual activity (RPS6KA6; 1.0E-05 M) | Residual activity (RPS6KA6; 1.0E-06 M) | Residual activity (SIK1; 1.0E-05 M) | Residual activity (SIK1; 1.0E-06 M) | Residual activity (STK33; 1.0E-05 M) | Residual activity (STK33; 1.0E-06 M) | Residual activity (CAMK1D; 1.0E-05 M) | Residual activity (CAMK1D; 1.0E-06 M) | Residual activity (p38delta; 1.0E-05 M) | Residual activity (p38delta; 1.0E-06 M) | Residual activity (PKCeta; 1.0E-05 M) | Residual activity (PKCeta; 1.0E-06 M) | Residual activity (MAP3K7/MAP3K7IP1; 1.0E-05 M) | Residual activity (MAP3K7/MAP3K7IP1; 1.0E-06 M) | Residual activity (BUB1B; 1.0E-05 M) | Residual activity (BUB1B; 1.0E-06 M) | Residual activity (STK39; 1.0E-05 M) | Residual activity (STK39; 1.0E-06 M) | Residual activity (FGR; 1.0E-05 M) | Residual activity (FGR; 1.0E-06 M) | other results
1 | O=C(Nc1ccc(F)c(Nc2ccc3c(c2)CCCCC3=O)c1)c1cccc(F)c1 [Compound 109] | 81 % of control | 88 % of control | 83 % of control | 89 % of control | 99 % of control | 93 % of control | 89 % of control | 93 % of control | 98 % of control | 91 % of control | 110 % of control | 116 % of control | 91 % of control | 91 % of control | 106 % of control | 104 % of control | 100 % of control | 90 % of control | 84 % of control | 105 % of control | Residual activity (ERK5; 1.0E-05 M): 93 % of control; Residual activity (ERK5; 1.0E-06 M): 90 % of control; Residual activity (MEKK2; 1.0E-05 M): 101 % of control; Residual activity (MEKK2; 1.0E-06 M): 99 % of control
2 | O=C(Cc1ccccc1)Nc1ccc(F)c(Nc2ccc3c(c2)CCCCC3=O)c1 [Compound 100] | 83 % of control | 90 % of control | 86 % of control | 84 % of control | 96 % of control | 109 % of control | 88 % of control | 85 % of control | 85 % of control | 93 % of control | 115 % of control | 116 % of control | 91 % of control | 88 % of control | 96 % of control | 108 % of control | 106 % of control | 108 % of control | 82 % of control | 108 % of control | Residual activity (ERK5; 1.0E-05 M): 103 % of control; Residual activity (ERK5; 1.0E-06 M): 80 % of control; Residual activity (MEKK2; 1.0E-05 M): 108 % of control; Residual activity (MEKK2; 1.0E-06 M): 108 % of control
